Test results reported in patent US8334308B2, “Renin inhibitors” (Merck Sharp & Dohme Corp., priority 2007, dated 2012).

What was measured:
renin in human plasma = target: T1, renin in human plasma (Homo sapiens, UniProt P00797); experiment: Inhibition of renin in human plasma (enzymatic in vitro assay, Ang I EIA); format: biochemical; settings: human plasma from 10 normal donors, 37° C. 2 h
T1 construct: host or cells: recombinant renin of unstated origin added to human plasma from 10 normal donors
T1 sequence (P00797 67-406): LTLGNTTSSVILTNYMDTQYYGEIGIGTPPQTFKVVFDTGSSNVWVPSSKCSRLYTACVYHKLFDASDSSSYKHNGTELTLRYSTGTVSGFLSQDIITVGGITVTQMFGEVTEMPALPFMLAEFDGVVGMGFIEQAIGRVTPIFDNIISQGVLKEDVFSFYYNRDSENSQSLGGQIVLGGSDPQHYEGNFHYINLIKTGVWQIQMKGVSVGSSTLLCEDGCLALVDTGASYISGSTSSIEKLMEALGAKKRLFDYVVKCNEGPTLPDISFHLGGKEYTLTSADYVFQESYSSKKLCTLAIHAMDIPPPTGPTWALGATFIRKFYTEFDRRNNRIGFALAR
Procedure: Inhibition of Renin in Human Plasma
The enzymatic in vitro assay was performed in 384-well polypropylene plates (Nunc). The assay buffer consisted of PBS (Gibco BRL) including 1 mM EDTA and 0.1% BSA. The reaction mixture was composed of 80 μL, per well of human plasma, enzyme, Ang I-antibodiesmix and 5 μL of renin inhibitors in DMSO. The human plasma mix was premixed at 4° C. and consists of […]
human plasma from 10 normal donors human recombinant renin (3 μM)
The mixtures were then incubated at 37° C. for 2 h.
To determine the enzymatic activity and its inhibition, the accumulated Ang I was detected by an enzyme immunoassay (EIA) in 384-well plates (Nunc). 10 μL of the reaction mixture or standards were transferred to immuno plates which were previously coated with a covalent complex of Ang I and bovine serum albumin (Ang I-BSA). 70 μL assay buffer were added and the plates were incubated at 4° C. overnight.

human recombinant renin = target: T2, human recombinant renin (Homo sapiens, UniProt P00797); experiment: Inhibition of human recombinant renin (enzymatic in vitro assay, Ang I EIA); format: biochemical; settings: human recombinant renin 40 pM, buffer, 37° C. 3 h
T2 sequence (P00797 67-406): T1 sequence (P00797 67-406)
Procedure: Inhibition of Human Recombinant Renin
The enzymatic in vitro assay was performed in 384-well polypropylene plates (Nunc). The assay buffer consisted of PBS (Gibco BRL) including 1 mM EDTA and 0.1% BSA. The reaction mixture were composed of 47.5 μL per well of an enzyme mix and 2.5 μL of renin inhibitors in DMSO. The enzyme mix was premixed at 4° C. and consists of the following components: […]
human recombinant renin (40 pM) synthetic human angiotensin(1-14) (0.5 μM) hydroxyquinoline sulfate (1 mM)
The mixtures were then incubated at 37° C. for 3 h. The enzyme reaction was stopped by placing the reaction plate on wet ice.
To determine the enzymatic activity and its inhibition, the accumulated Ang I was detected by an enzyme immunoassay (EIA) in 384-well plates (Nunc). 5 μL of the reaction mixture or standards were transferred to immuno plates which were previously coated with a covalent complex of Ang I and bovine serum albumin (Ang I-BSA). 75 μL of Ang I-antibodies in assay buffer above including 0.01% Tween 20 were added and the plates were incubated at 4° C. overnight.
An alternative protocol could be used by stopping the enzymatic reaction with 0.02N final concentration of HCl. 5 μL of the reaction mixture or standards were transferred to immuno plates and 75 μL of Ang I-antibodies in assay buffer above including 0.01% Tween 20 were added and the plates were incubate at RT for 4 h.

COCCCc1cccc(C)c1-c1ccc(C(CN)Cc2ccc(OCCOc3c(Cl)cc(C)cc3Cl)cc2)c(C)c1 (stereo not drawn) [Example 12, 3-{4-[2-(2,6-dichloro-4-methylphenoxy)ethoxy]phenyl}-2-[2′-(3-methoxypropyl)-3,6′-dimethylbiphenyl-4-yl]propan-1-amine]
IC50 (renin in human plasma): 643 nM
IC50 (human recombinant renin): 0.2 nM

COCCCc1ccccc1-c1cc(C(F)(F)F)c(C(CN)Cc2ccc(OCCOc3c(Cl)cc(C)cc3Cl)cc2)cn1 (stereo not drawn) [Example 11, 3-{4-[2-(2,6-dichloro-4-methylphenoxy)ethoxy]phenyl}-2-[6-[2-(3-methoxypropyl)phenyl]-4-(trifluoromethyl)pyridin-3-yl]propan-1-amine]
IC50 (renin in human plasma): 21 nM
IC50 (human recombinant renin): 0.3 nM

CC(=O)NCCc1ccccc1-c1ccc(C(CN)Cc2ccc(OCCOc3c(Cl)cc(C)cc3Cl)cc2)c(C)c1 (stereo not drawn) [Example 30, 2-{2′-[2-(acetylamino)ethyl]-3-methylbiphenyl-4-yl}-3-{4-[2-(2,6-dichloro-4-methylphenoxy)ethoxy]phenyl}propan-1-aminium chloride]
IC50 (renin in human plasma): 9.6 nM

COCCc1ccccc1-c1ccc(C(CN)Cc2ccc(OCCOc3c(Cl)cc(C)cc3Cl)cc2)c(C)c1 (stereo not drawn) [Example 2, 3-{4-[2-(2,6-dichloro-4-methylphenoxy)ethoxy]phenyl}-2-[2′-(2-methoxyethyl)-3-methylbiphenyl-4-yl]propan-1-amine]
IC50 (renin in human plasma): 1920 nM
IC50 (human recombinant renin): 19.7 nM

COc1cc(-c2ccccc2Cl)ccc1C(CN)Cc1ccc(OCCOc2c(Cl)cc(C)cc2Cl)cc1 (stereo not drawn) [Example 8, 2-(2′-chloro-3-methoxybiphenyl-4-yl)-3-{4-[2-(2,6-dichloro-4-methylphenoxy)ethoxy]phenyl}propan-1-amine]
IC50 (renin in human plasma): 3620 nM
IC50 (human recombinant renin): 47.6 nM

COCCCc1ccccc1-c1ccc(C(CN)Cc2ccc(OCCOc3c(Cl)cc(C)cc3Cl)cc2)c(C)c1 (stereo not drawn) [Example 3, 3-{4-[2-(2,6-dichloro-4-methylphenoxy)ethoxy]phenyl}-2-[2′-(3-methoxypropyl)-3-methylbiphenyl-4-yl]propan-1-amine]
IC50 (renin in human plasma): 116 nM
IC50 (human recombinant renin): 0.4 nM

Cc1cc(Cl)c(OCCOc2ccc(CC(CN)c3ccc(-c4ccccc4Cl)cc3F)cc2)c(Cl)c1 (stereo not drawn) [Example 7, 2-(2′-chloro-3-fluorobiphenyl-4-yl)-3-{4-[2-(2,6-dichloro-4-methylphenoxy)ethoxy]phenyl}propan-1-amine]
IC50 (renin in human plasma): 1150 nM
IC50 (human recombinant renin): 7 nM

COCCCOc1ccccc1-c1ccc(C(CN)Cc2ccc(OCCOc3c(Cl)cc(C)cc3Cl)cc2)c(C)c1 (stereo not drawn) [Example 5, 3-{4-[2-(2,6-dichloro-4-methylphenoxy)ethoxy]phenyl}-2-[2′-(3-methoxypropoxy)-3-methylbiphenyl-4-yl]propan-1-amine]
IC50 (renin in human plasma): 1160 nM
IC50 (human recombinant renin): 1.7 nM

COCCOc1ccccc1-c1ccc(C(CN)Cc2ccc(OCCOc3c(Cl)cc(C)cc3Cl)cc2)c(C)c1 (stereo not drawn) [Example 4, 3-{4-[2-(2,6-dichloro-4-methylphenoxy)ethoxy]phenyl}-2-[2′-(2-methoxyethoxy)-3-methylbiphenyl-4-yl]propan-1-amine]
IC50 (renin in human plasma): 1500 nM
IC50 (human recombinant renin): 7.4 nM

Cc1cc(Cl)c(OCCOc2ccc(CC(CN)c3ccc(-c4ccccc4Cl)cc3C)cc2)c(Cl)c1 (stereo not drawn) [Example 1, 2-(2′-Chloro-3-methyl-biphenyl-4-yl)-3-{4-[2-(2,6-dichloro-4-methyl-phenoxy)-ethoxy]-phenyl}-propylamine]
IC50 (renin in human plasma): 796 nM
IC50 (human recombinant renin): 6 nM

Cc1cc(Cl)c(OCCOc2ccc(CC(CN)c3ccc(-c4ccccc4CCC(=O)N(C)C)cc3C)cc2)c(Cl)c1 (stereo not drawn) [Example 24, 3-[4′-(2-amino-1-{4-[2-(2,6-dichloro-4-methylphenoxy)ethoxy]benzyl}ethyl)-3′-methylbiphenyl-2-yl]-N—N-dimethylpropanamide]
IC50 (renin in human plasma): > 1110 nM
IC50 (human recombinant renin): 30.8 nM

Cc1cc(Cl)c(OCCOc2ccc(CC(CN)c3ccc(-c4ccccc4Cl)cc3Cl)cc2)c(Cl)c1 (stereo not drawn) [Example 10, 2-(2′,3-dichlorobiphenyl-4-yl)-3-{4-[2-(2,6-dichloro-4-methylphenoxy)ethoxy]phenyl}propan-1-amine]
IC50 (renin in human plasma): 764 nM
IC50 (human recombinant renin): 0.5 nM

COCCCc1c(-c2ccc(C(CN)Cc3ccc(OCCOc4c(Cl)cc(C)cc4Cl)cc3)c(C)c2)ccc[n+]1[O-] (stereo not drawn) [Example 21, 3-{-4-[2-(2,6-dichloro-4-methylphenoxy)ethoxy]phenyl}-2-{4-[2-(3-methoxypropyl)-1-oxidopyridin-3-yl]-2-methylphenyl}propan-1-amine]
IC50 (renin in human plasma): 103 nM
IC50 (human recombinant renin): 4.3 nM

COCCCc1ccccc1-c1ccc(C(CN)Cc2cc(F)cc(F)c2)c(C)c1 (stereo not drawn) [Example 32, 3-(3,5-difluorophenyl)-2-[2′-(3-methoxypropyl)-3-methylbiphenyl-4-yl]propan-1-amine]
IC50 (renin in human plasma): > 10000 nM
IC50 (human recombinant renin): 285 nM

Cc1cc(Cl)c(OCCOc2ccc(CC(CN)c3ccc(-c4ccccc4Cl)cc3)cc2)c(Cl)c1 (stereo not drawn) [Example 6, 2-(2′-chlorobiphenyl-4-yl)-3-{4-[2-(2,6-dichloro-4-methylphenoxy)ethoxy]phenyl}propan-1-amine]
IC50 (human recombinant renin): 44.4 nM

COCCCc1ccccc1-c1ccc(C(CN)Cc2ccc(OCCOc3c(Cl)cc(C)cc3Cl)cc2)c(C(F)(F)F)c1 (stereo not drawn) [Example 13, 3-{4-[2-(2,6-dichloro-4-methylphenoxy)ethoxy]phenyl}-2-[2′-(3-methoxypropyl)-3-(trifluoromethyl)biphenyl-4-yl]propan-1-amine]
IC50 (renin in human plasma): 156 nM
IC50 (human recombinant renin): 0.9 nM

Cc1cc(Cl)c(OCCOc2ccc(CC(CN)c3ccc(-c4c(Cl)cccc4Cl)cc3C)cc2)c(Cl)c1 (stereo not drawn) [Example 39]
IC50 (renin in human plasma): 2320 nM
IC50 (human recombinant renin): 16.3 nM

COCCCc1ncccc1-c1ccc(C(CN)Cc2ccc(OCCOc3c(Cl)cc(C)cc3Cl)cc2)c(C)c1 (stereo not drawn) [Example 16, 3-{4-[2-(2,6-dichloro-4-methylphenoxy)ethoxy]phenyl}-2-{4-[2-(3-methoxypropyl)pyridin-3-yl]-2-methylphenyl}propan-1-amine]
IC50 (renin in human plasma): 94.6 nM
IC50 (human recombinant renin): 1.1 nM

Cc1cc(Cl)c(OCCOc2ccc(CC(CN)c3ccc(-c4ccccc4CCC#N)cc3C)cc2)c(Cl)c1 (stereo not drawn) [Example 14, 3-[4′-(2-amino-1-{4-[2-(2,6-dichloro-4-methylphenoxy)ethoxy]benzyl}ethyl)-3′-methylbiphenyl-2-yl]propanenitrile]
IC50 (renin in human plasma): 544 nM
IC50 (human recombinant renin): 10.6 nM
